Literature values in article PMC9337769 (Science Advances, 2022).

Columns and labels:
PKA-C [1] = details: substrate binding cooperativity of ligand-bound PKA-C
PKA-C [2] = details: inhibition of PKA-C; literature value

| Compound | K-type cooperativity (in words) (PKA-C [1]) | Ki (PKA-C [2]) |
| --- | --- | --- |
| Nc1ncnc2c1ncn2[C@@H]1O[C@H](COP(=O)(O)OP(=O)(O)CP(=O)(O)O)[C@@H](O)[C@H]1O [adenosine 5′-(β,γ-methylene) triphosphate] | lacks K-type cooperativity |  |
| O=S(=O)(NCCNCC=Cc1ccc(Br)cc1)c1cccc2cnccc12 [H89, N-[2-(p-bromocinnamylamino)ethyl]-5-isoquinoline sulfonamide] | negative K-type cooperativity |  |
| O=C(N[C@@H]1CNCCC[C@H]1OC(=O)c1cc(O)c(C(=O)c2c(O)cccc2C(=O)O)c(O)c1)c1ccc(O)cc1 [balanol] |  | ~4 nM |
